Experimental findings from ChEMBL document CHEMBL4118156, “Design, synthesis and evaluation of vilazodone-tacrine hybrids as multitarget-directed ligands against depression with cognitive impairment” (Bioorg Med Chem, 2018) are described below.

One series deals with T1, Acetylcholinesterase (Rattus norvegicus, UniProt P37136).
T1 sequence (P37136 whole entry): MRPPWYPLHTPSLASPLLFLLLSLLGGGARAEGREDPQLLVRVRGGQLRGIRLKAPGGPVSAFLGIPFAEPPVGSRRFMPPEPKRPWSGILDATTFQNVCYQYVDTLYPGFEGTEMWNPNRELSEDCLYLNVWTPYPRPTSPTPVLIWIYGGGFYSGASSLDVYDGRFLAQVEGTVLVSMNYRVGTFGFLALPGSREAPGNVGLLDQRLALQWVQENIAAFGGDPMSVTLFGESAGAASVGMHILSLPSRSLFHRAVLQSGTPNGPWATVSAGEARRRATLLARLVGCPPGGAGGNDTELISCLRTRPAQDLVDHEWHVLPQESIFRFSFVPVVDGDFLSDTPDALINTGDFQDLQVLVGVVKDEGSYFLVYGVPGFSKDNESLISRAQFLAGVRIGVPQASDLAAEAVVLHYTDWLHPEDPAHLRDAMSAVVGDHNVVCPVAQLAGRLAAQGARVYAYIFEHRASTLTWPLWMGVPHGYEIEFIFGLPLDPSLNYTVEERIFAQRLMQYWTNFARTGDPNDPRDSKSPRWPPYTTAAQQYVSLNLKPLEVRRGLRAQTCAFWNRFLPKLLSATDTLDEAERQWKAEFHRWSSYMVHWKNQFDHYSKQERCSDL
In words: Inhibition of rat cortex AChE using acetylthiocholine iodide as substrate after 20 mins by Ellman's method.

Series [1] has as its target T2, Butyrylcholinesterase (Rattus norvegicus, UniProt Q9JKC1).
Description: (§1) Inhibition of rat serum BChE using butyrylthiocholine iodide as substrate after 20 mins by Ellman's method
Series [2] addresses T3, 5-hydroxytryptamine receptor 1A (Homo sapiens, UniProt P08908).
T3 sequence (P08908 whole entry): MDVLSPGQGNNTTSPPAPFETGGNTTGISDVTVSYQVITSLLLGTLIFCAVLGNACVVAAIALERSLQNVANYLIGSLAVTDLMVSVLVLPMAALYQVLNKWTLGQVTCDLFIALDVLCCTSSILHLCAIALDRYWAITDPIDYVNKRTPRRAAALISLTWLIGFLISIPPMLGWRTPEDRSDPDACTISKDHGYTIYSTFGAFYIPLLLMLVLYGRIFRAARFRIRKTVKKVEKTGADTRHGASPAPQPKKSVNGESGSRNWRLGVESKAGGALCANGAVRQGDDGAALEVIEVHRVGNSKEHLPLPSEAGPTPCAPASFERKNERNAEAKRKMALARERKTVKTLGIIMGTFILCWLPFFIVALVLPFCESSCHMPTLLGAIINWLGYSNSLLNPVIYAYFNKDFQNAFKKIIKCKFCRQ
Description: Agonist activity at human 5-HT1A receptor expressed in HEK293 cells after 60 mins by Eu-cAMP solution based ultra LANCE assay

Series [3] in a line: in vitro. The following applies: PAMPA.
Description: Effective permeability of the compound in PBS/ethanol buffer after 12 hrs by PAMPA
For series [4], the target named is Sodium-dependent serotonin transporter (Homo sapiens, UniProt P31645). Format: cell-based, HEK293.
Sodium-dependent serotonin transporter, sequence (P31645 whole entry): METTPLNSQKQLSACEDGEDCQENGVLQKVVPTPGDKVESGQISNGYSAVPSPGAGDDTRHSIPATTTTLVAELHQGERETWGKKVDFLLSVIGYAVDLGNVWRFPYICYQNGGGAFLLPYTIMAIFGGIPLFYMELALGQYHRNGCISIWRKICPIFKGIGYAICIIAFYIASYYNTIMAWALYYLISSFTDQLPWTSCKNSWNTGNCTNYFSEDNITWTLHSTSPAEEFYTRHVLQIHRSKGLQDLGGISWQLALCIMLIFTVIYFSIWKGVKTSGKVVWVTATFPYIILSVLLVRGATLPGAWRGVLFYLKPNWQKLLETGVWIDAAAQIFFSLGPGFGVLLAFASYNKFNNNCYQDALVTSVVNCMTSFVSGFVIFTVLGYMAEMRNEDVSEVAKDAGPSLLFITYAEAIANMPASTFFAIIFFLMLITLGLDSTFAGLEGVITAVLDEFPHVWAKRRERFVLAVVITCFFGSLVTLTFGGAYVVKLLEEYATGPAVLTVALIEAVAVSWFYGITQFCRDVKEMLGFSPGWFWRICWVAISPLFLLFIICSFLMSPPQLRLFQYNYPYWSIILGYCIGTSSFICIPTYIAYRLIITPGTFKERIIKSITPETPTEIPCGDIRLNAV
Description: Inhibition of SERT (unknown origin) expressed in HEK293 cells assessed as reduction in 5-HT uptake incubated for 30 mins
Series [5] is described as follows: in vitro. The following applies: not told.
Description: Effective permeability of the compound in PBS/ethanol buffer
Series [6] deals with T2, Butyrylcholinesterase. The source holds these as a separate data set.
Description: as §1

SMILES strings stand for the structures.

T2 sequence (Q9JKC1 whole entry): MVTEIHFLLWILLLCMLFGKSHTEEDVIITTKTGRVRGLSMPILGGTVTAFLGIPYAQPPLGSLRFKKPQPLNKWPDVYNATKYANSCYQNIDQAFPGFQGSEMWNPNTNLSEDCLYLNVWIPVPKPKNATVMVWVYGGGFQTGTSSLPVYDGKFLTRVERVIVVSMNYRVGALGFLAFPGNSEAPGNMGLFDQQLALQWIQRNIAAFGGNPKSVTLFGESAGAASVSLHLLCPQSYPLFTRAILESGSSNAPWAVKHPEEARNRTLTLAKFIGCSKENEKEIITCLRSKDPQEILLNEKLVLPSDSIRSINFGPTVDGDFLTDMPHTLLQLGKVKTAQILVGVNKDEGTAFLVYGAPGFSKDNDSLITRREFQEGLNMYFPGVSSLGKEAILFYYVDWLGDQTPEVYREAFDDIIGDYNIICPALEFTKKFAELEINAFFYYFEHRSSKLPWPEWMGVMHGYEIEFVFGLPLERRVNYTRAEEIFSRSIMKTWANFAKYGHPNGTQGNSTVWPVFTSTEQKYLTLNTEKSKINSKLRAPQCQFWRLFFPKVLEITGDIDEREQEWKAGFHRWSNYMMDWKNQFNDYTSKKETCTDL

In the case of `N#Cc1ccc2[nH]cc(CCCN3CCN(c4cccc5nc6c(c(N)c45)CCCC6)CC3)c2c1`, the IC50 on Acetylcholinesterase (read-out: IC50) amounted to 1820 nM; on Butyrylcholinesterase [1] it was 420 nM. Moreover, in series [2], the EC50 was 52 nM. Further, the Papp at 12 h in “in vitro [3]” was found to be 5.46 ×10⁻⁶ cm/s.
With `N#Cc1ccc2[nH]cc(CCCCN3CCN(c4cccc5c(N)c6c(nc45)CCCC6)CC3)c2c1`, the IC50 stood at 2330 nM at Acetylcholinesterase (read-out: IC50) and 310 nM against Butyrylcholinesterase [1]. Besides, in series [2], a half-maximal effect (EC50) was put at 1.55 nM. In “in vitro [3]”, this compound had a Papp at 12 h of 4.43 ×10⁻⁶ cm/s.
On the same counts, the results for `N#Cc1ccc2[nH]cc(C(=O)CCCN3CCN(c4cccc5c(N)c6c(nc45)CCCC6)CC3)c2c1` are 3310 nM, 1850 nM, 35 nM and 1.61 ×10⁻⁶ cm/s.
Take `N#Cc1ccc2[nH]cc(CCCCN3CCN(c4cccc5nc6c(c(N)c45)CCCC6)CC3)c2c1`: the IC50 on Acetylcholinesterase (read-out: IC50) amounted to 1720 nM; on Butyrylcholinesterase [1] it was 340 nM; in series [4], 20.4 nM. This compound also came in with an EC50 in series [2] of 0.36 nM. Also, the Papp at 12 h in the series “in vitro [3]” came to 5.11 ×10⁻⁶ cm/s.
For the compound `Nc1c2c(nc3cccc(N4CCN(CCCCc5c[nH]c6ccccc56)CC4)c13)CCCC2`, the IC50 at Acetylcholinesterase (read-out: IC50) stood at 1440 nM; against Butyrylcholinesterase [1] it was 390 nM. In series [2], this compound yielded an EC50 of 1.2 nM. This compound also gave a Papp at 12 h in “in vitro [3]” of 3.52 ×10⁻⁶ cm/s.
With `N#Cc1ccc2[nH]cc(CCN3CCN(c4cccc5nc6c(c(N)c45)CCCC6)CC3)c2c1`, the IC50 on Acetylcholinesterase (read-out: IC50) turned out to be 2100 nM; on Butyrylcholinesterase [1], 1130 nM. The EC50 in series [2] was greater than 10000 nM. The compound further came in with a Papp at 12 h in the series “in vitro [3]” of 4.48 ×10⁻⁶ cm/s.
For `COc1ccc2[nH]cc(CCCCN3CCN(c4cccc5nc6c(c(N)c45)CCCC6)CC3)c2c1`, the IC50 at Acetylcholinesterase (read-out: IC50) is 1620 nM; at Butyrylcholinesterase [1], 400 nM; in series [4], 229 nM. Also, the EC50 in series [2] was less than 0.14 nM. The compound also registered an apparent permeability coefficient (Papp) at 12 h in the series “in vitro [3]” of 4.53 ×10⁻⁶ cm/s.
As for `CC1COc2c(N3CCN(C)CC3)c(F)cc3c2N1CC(C(=O)O)C3=O` (stereo not drawn), the Papp in “in vitro [5]” was determined as 0.8 ×10⁻⁶ cm/s. For the same compound, the Papp at 12 h in “in vitro [3]” was 0.4 ×10⁻⁶ cm/s.
For the compound `N#Cc1ccc2[nH]cc(C(=O)CCCN3CCN(c4ccc5nc6c(c(N)c5c4)CCCC6)CC3)c2c1`, the IC50 at Acetylcholinesterase (read-out: IC50) worked out at 2910 nM; on Butyrylcholinesterase [1], 250 nM. The EC50 in series [2] is 1560 nM. The compound further had a Papp at 12 h in the series “in vitro [3]” of 1.04 ×10⁻⁶ cm/s.
In the case of `Nc1c2c(nc3cccc(N4CCN(CCCCc5c[nH]c6ccc(Cl)cc56)CC4)c13)CCCC2`, the IC50 result on Acetylcholinesterase and on Butyrylcholinesterase [6] was “Nd(Insoluble)” each time. The compound also yielded an EC50 in series [2] of 0.75 nM. Moreover, the Papp at 12 h in “in vitro [3]” came to 2.74 ×10⁻⁶ cm/s.
Regarding `N#Cc1ccc2[nH]cc(C(=O)CCCN3CCN(c4ccc5c(N)c6c(nc5c4)CCCC6)CC3)c2c1`, the values for the IC50 on Acetylcholinesterase (read-out: IC50) and against Butyrylcholinesterase [1] were 1980 nM and 370 nM, respectively. Moreover, in series [2], the EC50 turned out to be 567 nM. This compound also gave a Papp at 12 h in the series “in vitro [3]” of 1.68 ×10⁻⁶ cm/s.
In the case of `Nc1c2c(nc3cccc(N4CCN(CCCCc5c[nH]c6ccc(Br)cc56)CC4)c13)CCCC2`, the IC50 result against Acetylcholinesterase and at Butyrylcholinesterase [6] was “Nd(Insoluble)” throughout. In series [2], this compound registered an EC50 of 0.35 nM. The Papp at 12 h in the series “in vitro [3]” was 3.05 ×10⁻⁶ cm/s.
Take `N#Cc1ccc2[nH]cc(CCCCN3CCN(c4cccc5nc6c(c(N)c45)CCC6)CC3)c2c1`: the IC50 at Acetylcholinesterase (read-out: IC50) was 2360 nM; against Butyrylcholinesterase [1] it was 100 nM; in series [4], 22.1 nM. This compound yielded an EC50 in series [2] of 0.58 nM. The same compound gave a Papp at 12 h in “in vitro [3]” of 4.38 ×10⁻⁶ cm/s.
`N#Cc1ccc2[nH]cc(C(=O)CCCN3CCN(c4cccc5nc6c(c(N)c45)CCCC6)CC3)c2c1`: the values for the IC50 on Acetylcholinesterase (read-out: IC50) and at Butyrylcholinesterase [1] were 1360 nM and 390 nM, respectively. The same compound gave an EC50 in series [2] of 62.4 nM. For the same compound, the Papp at 12 h in the series “in vitro [3]” turned out to be 1.33 ×10⁻⁶ cm/s.
Take `COC(=O)c1ccc2[nH]cc(CCCCN3CCN(c4cccc5nc6c(c(N)c45)CCCC6)CC3)c2c1`: the IC50 is 2220 nM at Acetylcholinesterase (read-out: IC50), 410 nM against Butyrylcholinesterase [1] and 314 nM in series [4]. Moreover, the EC50 in series [2] was less than 0.14 nM. In “in vitro [3]”, this compound had a Papp at 12 h of 6.22 ×10⁻⁶ cm/s.
As to `N#Cc1ccc2[nH]cc(CCCCN3CCN(c4ccc5c(N)c6c(nc5c4)CCCC6)CC3)c2c1`, the values for the IC50 on Acetylcholinesterase (read-out: IC50) and at Butyrylcholinesterase [1] were 5100 nM and 250 nM, respectively. In addition, in series [2], a half-maximal response (EC50) required 28.8 nM. This compound also registered a Papp at 12 h in the series “in vitro [3]” of 2.99 ×10⁻⁶ cm/s.
Consider `Nc1c2c(nc3cccc(N4CCN(CCCCc5c[nH]c6ccc(F)cc56)CC4)c13)CCCC2`, for which the IC50 result against Acetylcholinesterase and against Butyrylcholinesterase [6] was “Nd(Insoluble)” throughout. The response in series [2] was half-maximal at 0.72 nM (EC50). Also, in “in vitro [3]”, the Papp at 12 h worked out at 3.76 ×10⁻⁶ cm/s.
Take `N#Cc1ccc2[nH]cc(CCCCN3CCN(c4ccc5nc6c(c(N)c5c4)CCCC6)CC3)c2c1`: the IC50 on Acetylcholinesterase (read-out: IC50) was found to be 10200 nM; on Butyrylcholinesterase [1], 640 nM. In series [2], this compound registered an EC50 of 14.9 nM. In “in vitro [3]”, this compound had a Papp at 12 h of 3.55 ×10⁻⁶ cm/s.
In the case of `N#Cc1ccc2[nH]cc(CCCCN3CCN(c4cccc5nc6c(c(N)c45)CCCCC6)CC3)c2c1`, the IC50 stood at 18300 nM on Acetylcholinesterase (read-out: IC50) and 230 nM against Butyrylcholinesterase [1]. Also, it took 146 nM to reach a half-maximal effect in series [2] (EC50). Further, the Papp at 12 h in the series “in vitro [3]” is 3.97 ×10⁻⁶ cm/s.
Regarding `CC(=O)Nc1c2c(nc3cccc(N4CCN(CCCCc5c[nH]c6ccc(C#N)cc56)CC4)c13)CCCC2`, the IC50 on Acetylcholinesterase (read-out: IC50) came out at 5610 nM; at Butyrylcholinesterase [1] it was 2920 nM. Moreover, the EC50 in series [2] was 93.4 nM. The compound also displayed a Papp at 12 h in the series “in vitro [3]” of 1.92 ×10⁻⁶ cm/s.
In the case of `Cc1ccc2[nH]cc(CCCCN3CCN(c4cccc5nc6c(c(N)c45)CCCC6)CC3)c2c1`, the IC50 stood at 1120 nM on Acetylcholinesterase (read-out: IC50) and 360 nM against Butyrylcholinesterase [1]. This compound also yielded an EC50 in series [2] of 0.6 nM. The compound also displayed a Papp at 12 h in “in vitro [3]” of 3.64 ×10⁻⁶ cm/s.
In the series “in vitro [5]”, `COc1ccc(CCN2CCC(Nc3nc4ccccc4n3Cc3ccc(F)cc3)CC2)cc1` [ASTEMIZOLE] yielded a Papp of 11 ×10⁻⁶ cm/s.
`N#Cc1ccc2[nH]cc(CCCCN3CCN(c4ccc5oc(C(N)=O)cc5c4)CC3)c2c1` [VILAZODONE]: the IC50 at Acetylcholinesterase (read-out: IC50) was 21300 nM.
